Reference: ChEMBL document CHEMBL1125531, “Synthetic nonpsychotropic cannabinoids with potent antiinflammatory, analgesic, and leukocyte antiadhesion activities” (1992)
Values joined by “and” are separate entries in the source; they are usually repeats but may differ in a detail not shown here. Equal entries are not always repeated.

Tests used:
Format in all cases: functional
Mus musculus [1] = assay: Compound was evaluated for the antinociceptive effects at the dose 1.0(mg/kg)
Mus musculus [2] = assay: Compound was evaluated for the antinociceptive effects at the dose 4.0(mg/kg)
Mus musculus [3] = assay: Compound was evaluated for the percent inhibition of PAF-induced Paw edema at the dose 0.5 (mg/kg) (Increases in paw volume is 28 uL)
Mus musculus [4] = assay: Compound was evaluated for the antinociceptive effects at the dose 2.0(mg/kg)
Mus musculus [5] = assay: Compound was evaluated for the percent inhibition of PAF-induced Paw edema at the dose 0.25 (mg/kg) (Increases in paw volume is 24 uL)
Mus musculus [6] = assay: Compound was evaluated for the percent inhibition of PAF-induced Paw edema at the dose 0.1 (mg/kg) (Increases in paw volume is 38 uL)
Mus musculus [7] = assay: Compound was evaluated for the antinociceptive effects at the dose 0.5(mg/kg)
Mus musculus [8] = assay: Compound was evaluated for the antinociceptive effects at the dose 0.25(mg/kg)
Mus musculus [9] = assay: Compound was evaluated for the percent inhibition of arachidonic acid-induced paw edema at the dose 0.25(mg/kg)
Mus musculus [10] = assay: Compound was evaluated for the effect on leukocyte adhesion at the dose 0.01 (mg/kg); oral administration
Mus musculus [11] = assay: Compound was evaluated for the antinociceptive effects at the dose 0.025(mg/kg)
Mus musculus [12] = assay: Compound was evaluated for the cataleptic effect in the mouse at the dose 0.25(mg/kg)
Mus musculus [13] = assay: Compound was evaluated for the effect on leukocyte adhesion at the dose 0.1 (mg/kg); oral administration
Mus musculus [14] = assay: Compound was evaluated for the effect on leukocyte adhesion at the dose 0.05 (mg/kg); oral administration
Mus musculus [15] = assay: Compound was evaluated for the antinociceptive effects at the dose 0.1(mg/kg)
Mus musculus [16] = assay: Compound was evaluated for the cataleptic effect in the mouse at the dose 4.0(mg/kg)
Mus musculus [17] = assay: Compound was evaluated for the percent inhibition of PAF-induced Paw edema at the dose 0.05 (mg/kg) (Increases in paw volume is 10 uL)
Mus musculus [18] = assay: Compound was evaluated for the cataleptic effect in the mouse at the dose 0.5(mg/kg)
Mus musculus [19] = assay: Compound was evaluated for the effect on leukocyte adhesion at the dose 1.0 (mg/kg); oral administration
Mus musculus [20] = assay: Compound was evaluated for the antinociceptive effects at the dose 0.05(mg/kg)
Mus musculus [21] = assay: Compound was evaluated for the percent inhibition of arachidonic acid-induced paw edema at the dose 0.5(mg/kg)
Mus musculus [22] = assay: Compound was evaluated for the effect on leukocyte adhesion at the dose 0.5 (mg/kg); oral administration
Mus musculus [23] = assay: Compound was evaluated for the percent inhibition of PAF-induced Paw edema at the dose 0.1 (mg/kg) (Increases in paw volume is 19 uL)
Mus musculus [24] = assay: Compound was evaluated for the percent inhibition of PAF-induced Paw edema at the dose 0.25 (mg/kg) (Increases in paw volume is 11 uL)
Mus musculus [25] = assay: Compound was evaluated for the percent inhibition of PAF-induced Paw edema at the dose 0.5 (mg/kg) (Increases in paw volume is 7.5 uL)
Mus musculus [26] = assay: Compound was evaluated for the cataleptic effect in the mouse at the dose 1.0(mg/kg)
Mus musculus [27] = assay: Compound was evaluated for the percent inhibition of arachidonic acid-induced paw edema at the dose 0.1(mg/kg)
Mus musculus [28] = assay: Compound was evaluated for the percent inhibition of arachidonic acid-induced paw edema at the dose 0.05(mg/kg)
Mus musculus [29] = assay: Compound was evaluated for the percent inhibition of PAF-induced Paw edema at the dose 0.5 (mg/kg) (Increases in paw volume is -20 uL)
Mus musculus [30] = assay: Compound was evaluated for the percent inhibition of PAF-induced Paw edema at the dose 0.1 (mg/kg) (Increases in paw volume is -10 uL)
Mus musculus [31] = assay: Compound was evaluated for the percent inhibition of PAF-induced Paw edema at the dose 0.25 (mg/kg) (Increases in paw volume is -14 uL)
Mus musculus [32] = assay: Compound was evaluated for the percent inhibition of PAF-induced Paw edema at the dose 0.05 (mg/kg) (Increases in paw volume is -1.2 uL)
Mus musculus [33] = assay: Compound was evaluated for the cataleptic effect in the mouse at the dose 0.1(mg/kg)
Mus musculus [34] = assay: Compound was evaluated for the cataleptic effect in the mouse at the dose 0.5 mg/kg
Mus musculus [35] = assay: Compound was evaluated for the effect on leukocyte adhesion at the dose 40 (mg/kg); oral administration
Mus musculus [36] = assay: Compound was evaluated for the cataleptic effect in the mouse at the dose 5.0(mg/kg)
Mus musculus [37] = assay: Compound was evaluated for the effect on leukocyte adhesion at the dose 20 (mg/kg); oral administration
Mus musculus [38] = assay: Compound was evaluated for the percent inhibition of PAF-induced Paw edema at the dose 1.0 (mg/kg) (Increases in paw volume is 28 uL)
Mus musculus [39] = assay: Compound was evaluated for the percent inhibition of PAF-induced Paw edema at the dose 0.5 (mg/kg) (Increases in paw volume is 44 uL)
Mus musculus [40] = assay: Compound was evaluated for the percent inhibition of PAF-induced Paw edema at the dose 0.5 (mg/kg) (Increases in paw volume is 30 uL)
Mus musculus [41] = assay: Compound was evaluated for the percent inhibition of PAF-induced Paw edema at the dose 1.0 (mg/kg) (Increases in paw volume is 14 uL)
Mus musculus [42] = assay: Compound was evaluated for the effect on leukocyte adhesion at the dose 0.5(mg/kg); oral administration
Mus musculus [43] = assay: Compound was evaluated for the effect on leukocyte adhesion at the dose 0.2 (mg/kg); oral administration
Mus musculus [44] = assay: Compound was evaluated for the cataleptic effect in the mouse at the dose 40 mg/kg

CCCCCCC(C)(C)c1cc(O)c2c(c1)OC(C)(C)C1CC=C(C(=O)OC)C[C@H]21 (some centres undefined)
Change (Mus musculus [1]): 61.4%
Change (Mus musculus [2]): 3.1%
Inhibition (Mus musculus [3]): -7.5%
Change (Mus musculus [4]): 37.5%
Inhibition (Mus musculus [5]): 7.6%
Inhibition (Mus musculus [6]): -44.2%
Change (Mus musculus [7]): 49%
Change (Mus musculus [8]): 10.4%

CCCCCCC(C)(C)c1cc(O)c2c(c1)OC(C)(C)C1CC=C(C(=O)O)C[C@H]21 (some centres undefined)
Inhibition (Mus musculus [9]): 52.6%
No. of cells (Mus musculus [10]): 1.34
Change (Mus musculus [1]): 14.7%
Change (Mus musculus [11]): 10.3%
Response (Mus musculus [12]): 12.3
No. of cells (Mus musculus [13]): 1.38
No. of cells (Mus musculus [14]): 1.29
Change (Mus musculus [15]): 49.5%
Response (Mus musculus [16]): 8.7
Inhibition (Mus musculus [17]): 44.4%
Response (Mus musculus [18]): 13.8
No. of cells (Mus musculus [19]): 0.7
Change (Mus musculus [20]): 61.7%
Inhibition (Mus musculus [21]): 47.4%
No. of cells (Mus musculus [22]): 1.46
Inhibition (Mus musculus [23]): 38.7%
Inhibition (Mus musculus [24]): 31.9%
Inhibition (Mus musculus [25]): 60.1%
Response (Mus musculus [26]): 10.4
Change (Mus musculus [7]): 51.7%
Inhibition (Mus musculus [27]): 65.8%
Inhibition (Mus musculus [28]): 42.1%
Change (Mus musculus [8]): 61.5%

CCCCCCC(C)(C)c1cc(O)c2c(c1)OC(C)(C)[C@@H]1CC=C(C(=O)OC)CC21 (some centres undefined)
Change (Mus musculus [4]): 42.9%
Inhibition (Mus musculus [23]): 69.3%
Inhibition (Mus musculus [24]): 63.9%
Inhibition (Mus musculus [25]): 76%
Change (Mus musculus [7]): -2.8%

CCCCCCC(C)(C)c1cc(O)c2c(c1)OC(C)(C)[C@@H]1CC=C(C(=O)O)CC21 (some centres undefined)
Inhibition (Mus musculus [9]): 56.4%
No. of cells (Mus musculus [10]): 0.88
Inhibition (Mus musculus [29]): 171%
Change (Mus musculus [1]): 28.4%
Change (Mus musculus [11]): 20.8%
No. of cells (Mus musculus [13]): 0.64
No. of cells (Mus musculus [14]): 1.34
Inhibition (Mus musculus [30]): 135%
Change (Mus musculus [15]): 68.3%
No. of cells (Mus musculus [19]): 0.3
Change (Mus musculus [20]): 85%
Inhibition (Mus musculus [21]): 73.7% and 97.4% and 100%
No. of cells (Mus musculus [22]): 0.87
Inhibition (Mus musculus [31]): 150%
Inhibition (Mus musculus [32]): 101%
Response (Mus musculus [33]): 5.8
Response (Mus musculus [26]): 12.2
Change (Mus musculus [7]): 34%
Inhibition (Mus musculus [27]): 52.6%
Inhibition (Mus musculus [28]): 26.3%
Change (Mus musculus [8]): 33.4%

CCCCCc1cc(O)c2c(c1)OC(C)(C)[C@H]1C(C(=O)O)CC(C)=CC21 (some centres undefined)
No. of cells (Mus musculus [34]): 10
No. of cells (Mus musculus [35]): 0.55
No. of cells (Mus musculus [36]): 10.1
No. of cells (Mus musculus [37]): 0.67

CCCCCCC(C)(C)c1cc(O)c2c(c1)OC(C)(C)C1CC=C(CO)C[C@H]21 (some centres undefined)
No. of cells (Mus musculus [13]): 0.44
No. of cells (Mus musculus [14]): 1.09
Inhibition (Mus musculus [38]): 21.8%
No. of cells (Mus musculus [19]): 0.59
No. of cells (Mus musculus [22]): 0.64
Inhibition (Mus musculus [39]): -37.5%

CCCCCCC(C)(C)c1cc(O)c2c(c1)OC(C)(C)[C@@H]1CC=C(CO)CC21 (some centres undefined)
Inhibition (Mus musculus [40]): 6.3%
No. of cells (Mus musculus [13]): 0.94
No. of cells (Mus musculus [14]): 1.12
Inhibition (Mus musculus [41]): 56.3%
No. of cells (Mus musculus [42]): 0.59
No. of cells (Mus musculus [43]): 0.58

CCCCCc1cc(O)c2c(c1)OC(C)(C)[C@@H]1CCC(C)=C[C@@H]21 [DRONABINOL]
Cataleptic effect (Mus musculus [44]): 48.9
